Holding throughout (test): relative viability (nuclei count vs DMSO), 5 days (fraction); higher = more cells survive
Compound in the assay “Imatinib + Crizotinib”: Cc1ccc(NC(=O)c2ccc(CN3CCN(C)CC3)cc2)cc1Nc1nccc(-c2cccnc2)n1 [Imatinib] + C[C@@H](Oc1cc(-c2cnn(C3CCNCC3)c2)cnc1N)c1c(Cl)ccc(F)c1Cl [Crizotinib] (partner 1 µM)
In short, it runs like this:
(§1)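 Each reported value is a median over duplicate plates. It expresses relative viability: treated-well nuclei count divided by vehicle-well nuclei count. Lung cancer cell lines in 1536-well plates were dosed by pin tool a day after seeding, alone with one drug or with a fixed anchor-drug dose plus five library-drug doses (not always all listed) in √10 steps, and nuclei were counted after 5 days.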

Compound in the assay “Imatinib + Vorinostat”: Cc1ccc(NC(=O)c2ccc(CN3CCN(C)CC3)cc2)cc1Nc1nccc(-c2cccnc2)n1 [Imatinib] + O=C(CCCCCCC(=O)Nc1ccccc1)NO [Vorinostat] (partner 1 µM)
In short, it runs like this:
as §1

Compound in the assay “Imatinib + Trametinib”: Cc1ccc(NC(=O)c2ccc(CN3CCN(C)CC3)cc2)cc1Nc1nccc(-c2cccnc2)n1 [Imatinib] + CC(=O)Nc1cccc(-n2c(=O)n(C3CC3)c(=O)c3c(Nc4ccc(I)cc4F)n(C)c(=O)c(C)c32)c1 [Trametinib] (partner 0.02 µM)
The essentials:
as §1

Compound in the assay “Imatinib + Luminespib”: Cc1ccc(NC(=O)c2ccc(CN3CCN(C)CC3)cc2)cc1Nc1nccc(-c2cccnc2)n1 [Imatinib] + CCNC(=O)c1noc(-c2cc(C(C)C)c(O)cc2O)c1-c1ccc(CN2CCOCC2)cc1 [Luminespib] (partner 0.01 µM)
The essentials:
as §1

For the cell line SK-LU-1, the relative viability was determined as 1.04 with Imatinib + Crizotinib (first compound 0.02 µM); 0.927 in the assay with Imatinib + Crizotinib (first compound 0.06325 µM); 1.11 with Imatinib + Crizotinib (first compound 0.2 µM); 0.926 with Imatinib + Crizotinib (first compound 0.6325 µM); 1.04 with Imatinib + Crizotinib (first compound 2 µM); 0.87 in the assay with Imatinib + Vorinostat (first compound 0.02 µM). In addition, the relative viability with Imatinib + Vorinostat (first compound 0.06325 µM) stood at 0.832; with Imatinib + Vorinostat (first compound 0.2 µM), 0.798; in the assay with Imatinib + Vorinostat (first compound 0.6325 µM), 0.793; with Imatinib + Vorinostat (first compound 2 µM), 0.748; with Imatinib + Trametinib (first compound 0.02 µM) it was 0.465; with Imatinib + Trametinib (first compound 0.06325 µM), 0.485. The relative viability in the assay with Imatinib + Trametinib (first compound 0.2 µM) stood at 0.52; in the assay with Imatinib + Trametinib (first compound 0.6325 µM) it was 0.514; in the assay with Imatinib + Trametinib (first compound 2 µM), 0.529; with Imatinib + Luminespib (first compound 0.02 µM) it was 0.212; with Imatinib + Luminespib (first compound 0.06325 µM), 0.222; with Imatinib + Luminespib (first compound 0.2 µM), 0.201. The relative viability with Imatinib + Luminespib (first compound 0.6325 µM) came out at 0.243; with Imatinib + Luminespib (first compound 2 µM) it was 0.188.

As for SK-MES-1, the relative viability stood at 1.08 with Imatinib + Crizotinib (first compound 0.02 µM); 0.999 with Imatinib + Crizotinib (first compound 0.06325 µM); 1.16 with Imatinib + Crizotinib (first compound 0.2 µM); 1.05 with Imatinib + Crizotinib (first compound 0.6325 µM); 0.971 in the assay with Imatinib + Crizotinib (first compound 2 µM); 1.37 with Imatinib + Vorinostat (first compound 0.06325 µM). Moreover, the relative viability in the assay with Imatinib + Vorinostat (first compound 0.2 µM) worked out at 1.29; with Imatinib + Vorinostat (first compound 2 µM), 1.09; in the assay with Imatinib + Trametinib (first compound 0.02 µM), 0.642; in the assay with Imatinib + Trametinib (first compound 0.06325 µM) it was 0.663; with Imatinib + Trametinib (first compound 0.2 µM), 0.589; with Imatinib + Trametinib (first compound 0.6325 µM), 0.587. Also, the relative viability with Imatinib + Trametinib (first compound 2 µM) was 0.588; with Imatinib + Luminespib (first compound 0.02 µM) it was 0.906; with Imatinib + Luminespib (first compound 0.2 µM) it was 0.804; with Imatinib + Luminespib (first compound 0.6325 µM) it was 0.714; in the assay with Imatinib + Luminespib (first compound 2 µM) it was 0.873.

In the case of SW 1573, the relative viability in the assay with Imatinib + Crizotinib (first compound 0.02 µM) amounted to 0.996; with Imatinib + Crizotinib (first compound 0.2 µM), 0.956; with Imatinib + Crizotinib (first compound 0.6325 µM) it was 0.726; with Imatinib + Crizotinib (first compound 2 µM), 0.755; in the assay with Imatinib + Vorinostat (first compound 0.02 µM), 0.802; with Imatinib + Vorinostat (first compound 0.06325 µM), 0.392. For the same cell line, the relative viability in the assay with Imatinib + Vorinostat (first compound 0.2 µM) is 0.973; with Imatinib + Vorinostat (first compound 0.6325 µM), 0.9; with Imatinib + Vorinostat (first compound 2 µM) it was 0.709; with Imatinib + Trametinib (first compound 0.02 µM), 0.614; with Imatinib + Trametinib (first compound 0.06325 µM) it was 0.565; in the assay with Imatinib + Trametinib (first compound 0.2 µM), 0.619. Moreover, the relative viability with Imatinib + Trametinib (first compound 0.6325 µM) was found to be 0.618; with Imatinib + Trametinib (first compound 2 µM), 0.631; with Imatinib + Luminespib (first compound 0.02 µM), 0.23; with Imatinib + Luminespib (first compound 0.06325 µM), 0.348; with Imatinib + Luminespib (first compound 0.2 µM), 0.293; with Imatinib + Luminespib (first compound 0.6325 µM), 0.26. Moreover, the relative viability in the assay with Imatinib + Luminespib (first compound 2 µM) was determined as 0.233.

Take UMC-11: the relative viability in the assay with Imatinib + Crizotinib (first compound 0.02 µM) came out at 0.702; with Imatinib + Crizotinib (first compound 0.06325 µM) it was 0.647; in the assay with Imatinib + Crizotinib (first compound 0.2 µM), 0.56; with Imatinib + Crizotinib (first compound 0.6325 µM), 0.564; with Imatinib + Crizotinib (first compound 2 µM), 0.818; with Imatinib + Vorinostat (first compound 0.02 µM), 0.35. Also, the relative viability is 0.377 with Imatinib + Vorinostat (first compound 0.06325 µM); 0.36 with Imatinib + Vorinostat (first compound 0.2 µM); 0.412 in the assay with Imatinib + Vorinostat (first compound 0.6325 µM); 0.369 with Imatinib + Vorinostat (first compound 2 µM); 0.706 in the assay with Imatinib + Trametinib (first compound 0.02 µM); 0.736 with Imatinib + Trametinib (first compound 0.06325 µM). In addition, the relative viability with Imatinib + Trametinib (first compound 0.2 µM) turned out to be 0.643; with Imatinib + Trametinib (first compound 0.6325 µM), 0.896; with Imatinib + Trametinib (first compound 2 µM) it was 0.717; in the assay with Imatinib + Luminespib (first compound 0.02 µM), 1.19; with Imatinib + Luminespib (first compound 0.06325 µM) it was 1.22; with Imatinib + Luminespib (first compound 0.2 µM), 1.04. Also, the relative viability with Imatinib + Luminespib (first compound 2 µM) turned out to be 0.96.

Source of the values: the supplement of paper PMC10307832.
